Assay [1] has as its system symmetric di-methyl arginine in Z-138 cells. The assay can be described thus: Z-138 Methylation Assay (In Cell Western for symmetric di-methyl arginine and DNA content). The class given is cell-based. As to conditions: read-out: ICW EC50. The text has this: [formula] [formula] Where top and bottom are the normally allowed to float, but may be fixed at 100 or 0 respectively in a 3-parameter fit. The Hill Coefficient normally allowed to float but may also be fixed at 1 in a 3-parameter fit. Y is the % inhibition and X is the compound concentration.
RPMI/Glutamax medium, penicillin-streptomycin, heat inactivated fetal bovine serum, and D-PBS were purchased from Life Technologies, Grand Island, N.Y., USA. Odyssey blocking buffer, 800CW goat anti-rabbit IgG (H+L) antibody, and Licor Odyssey infrared scanner were purchased from Licor Biosciences, Lincoln, Nebr., USA. Symmetric di-methyl arginine antibody was purchased from EMD Millipore, Billerica, Mass., USA. 16% Paraformaldehyde was purchased from Electron Microscopy Sciences, Hatfield, Pa., USA.
Cell Treatment, in Cell Western (ICW) for Detection of Symmetric Di-Methyl Arginine and DNA Content.
Z-138 cells were seeded in assay medium at a concentration of 50,000 cells per mL to a 384-well cell culture plate with 50 μL per well. Compound (100 nL) from 384 well source plates was added directly to 384 well cell plate. Plates were incubated at 37° C., 5% CO2 for 96 hours. […] Plates were incubated at room temperature for 30 minutes then incubated at 37° C., 5% CO2 for 5 hours. After the incubation, 40 μL per well of 8% paraformaldehyde in PBS (16% paraformaldahyde was diluted to 8% in PBS) was added to each plate and incubated for 30 minutes. […] Next 30 μL per well of Odyssey blocking buffer were added to each plate and incubated 1 hour at room temperature. Blocking buffer was removed and 20 μL per well of primary antibody was added (symmetric di-methyl arginine diluted 1:100 in Odyssey buffer with 0.1% Tween 20 (v/v)) and plates were incubated overnight (16 hours) at 4° C. Plates were washed 5 times with 100 μL per well of wash buffer. Next 20 μL per well of secondary antibody was added (1:200 800CW goat anti-rabbit IgG (H+L) antibody, 1:1000 DRAQ5 (Biostatus limited) in Odyssey buffer with 0.1% Tween 20 (v/v)) and incubated for 1 hour at room temperature. The plates were washed 5 times with 100 μL per well wash buffer then 1 time with 100 μL per well of water. Plates were allowed to dry at room temperature then imaged on the Licor Odyssey machine which measures integrated intensity at 700 nm and 800 nm wavelengths. Both 700 and 800 channels were scanned.
First, the ratio for each well was determined by:
Each plate included fourteen control wells of DMSO only treatment (minimum inhibition) as well as fourteen control wells for maximum inhibition treated with 3 μM of a reference compound (Background wells). The average of the ratio values for each control type was calculated and used to determine the percent inhibition for each test well in the plate. Reference compound was serially diluted three-fold in DMSO for a total of nine test concentrations, beginning at 3 μM. Percent inhibition was determined and IC50 curves were generated using triplicate wells per concentration of compound. Percent Inhibition=100−

The subject of assay [2] is Z-138 cell line. Briefly: Z-138 Proliferation Assay (Cell Titer Glo, 5 days). As to conditions: Homo sapiens, 120 h; Z-138 cells, 5 days; read-out: Proliferation EC50. In kind it is cell-based. An excerpt: RPMI/Glutamax medium, penicillin-streptomycin, heat inactivated fetal bovine serum were purchased from Life Technologies, Grand Island, N.Y., USA. V-bottom polypropylene 384-well plates were purchased from Greiner Bio-One, Monroe, N.C., USA. Cell culture 384-well white opaque plates were purchased from Perkin Elmer, Waltham, Mass., USA. Cell-Titer Glo® was purchased from Promega Corporation, Madison, Wis., USA. SpectraMax M5 plate reader was purchased from Molecular Devices LLC, Sunnyvale, Calif., USA.
A compound source plate was prepared by performing triplicate nine-point 3-fold serial dilutions in DMSO, beginning at 10 mM (final top concentration of compound in the assay was 20 μM and the DMSO was 0.2%). A 100 nL aliquot from the compound stock plate was added to its respective well in the cell plate. […] After addition of compounds, assay plates were incubated for 5 days at 37° C., 5% CO2, relative humidity >90%.
Cell viability was measured by quantitation of ATP present in the cell cultures, adding […] of Cell Titer Glo® reagent to the cell plates. Luminescence was read in the SpectraMax M5 microplate reader. The concentration of compound inhibiting cell viability by 50% was determined using a 4-parametric fit of the normalized dose response curves.

Where two headings read alike, the source gives them in different places.

Regarding `O=C(NCC(O)CN1CCc2ccccc2C1)c1cccc(-c2ccccn2)c1` (stereo not drawn) [Compound 1, N-(3-(3,4-dihydroisoquinolin-2(1H)-yl)-2-hydroxypropyl)-3-(pyridin-2-yl)benzamide], the EC50 in assay [1] (Homo sapiens) was less than 100 nM; in assay [2] it was 1000 to 10000 nM. Regarding `Cn1nccc1-c1cccc(C(=O)NCC(O)CN2CCc3ccccc3C2)c1` (stereo not drawn) [Compound 2, N-(3-(3,4-dihydroisoquinolin-2(1H)-yl)-2-hydroxypropyl)-3-(1-methyl-1H-pyrazol-5-yl)benzamide], the EC50 was less than 100 nM in assay [1] (Homo sapiens) and 1000 to 10000 nM in assay [2]. For `O=C(NC[C@H](O)CN1CCc2ccccc2C1)c1ccccc1` [Compound 3, (S)—N-(3-(3,4-dihydroisoquinolin-2(1H)-yl)-2-hydroxypropyl)benzamide], the EC50 in assay [1] (Homo sapiens) was less than 100 nM; in assay [2] it was 1000 to 10000 nM. `O=C(NC[C@H](O)CN1CCc2ccccc2C1)Nc1ccccc1` [Compound 5]: the values for the EC50 in assay [1] (Homo sapiens) and in assay [2] were 101 to 1000 nM and more than 20000 nM, respectively. For `O=C(NCC(O)CN1CCc2ccccc2C1)c1cccc(-c2cccnc2)c1` (stereo not drawn) [Compound 8, N-(3-(3,4-dihydroisoquinolin-2(1H)-yl)-2-hydroxypropyl)-3-(pyridin-3-yl)benzamide] the same measures were less than 100 nM and 1000 to 10000 nM. The like results for `O=C(NCC(O)CN1CCc2ccccc2C1)c1cccc(-c2ccncc2)c1` (stereo not drawn) [Compound 9, N-(3-(3,4-dihydroisoquinolin-2(1H)-yl)-2-hydroxypropyl)-3-(pyridin-4-yl)benzamide] were, in that order, less than 100 nM and 1000 to 10000 nM. For `O=C(NCC(O)CN1CCc2ccccc2C1)c1cccc(-c2cc[nH]n2)c1` (stereo not drawn) [Compound 10] the same measures were 101 to 1000 nM and 1000 to 10000 nM. As to `O=C(NC[C@@H](O)CN1CCc2ccccc2C1)Oc1ccccc1` [Compound 11, (R)-phenyl (3-(3,4-dihydroisoquinolin-2(1H)-yl)-2-hydroxypropyl)carbamate], in assay [1] (Homo sapiens), the EC50 was in the range of 1000 to 10000 nM.

Regarding `O=C(NCC(O)CN1CCc2ccccc2C1)c1ccc(-c2ccccn2)cc1` (stereo not drawn) [Compound 13, N-(3-(3,4-dihydroisoquinolin-2(1H)-yl)-2-hydroxypropyl)-4-(pyridin-2-yl)benzamide], the figures for the EC50 in assay [1] (Homo sapiens) and in assay [2] were less than 100 nM and 101 to 1000 nM, respectively.

For `O=C(NCC(O)CN1CCc2ccccc2C1)c1cccc(N2CCOCC2)c1` (stereo not drawn) [Compound 14, N-(3-(3,4-dihydroisoquinolin-2(1H)-yl)-2-hydroxypropyl)-3-morpholinobenzamide], the EC50 in assay [1] (Homo sapiens) was 101 to 1000 nM; in assay [2], 1000 to 10000 nM.

On to `O=C(NCC(O)CN1CCc2ccccc2C1)c1cccc(CNC2CCOCC2)c1` (stereo not drawn) [Compound 15, N-(3-(3,4-dihydroisoquinolin-2(1H)-yl)-2-hydroxypropyl)-3-(((tetrahydro-2H-pyran-4-yl)amino)methyl)benzamide], for which the values for the EC50 in assay [1] (Homo sapiens) and in assay [2] were 101 to 1000 nM and 10000 to 50000 nM, respectively. The like results for `O=C(NCC(O)CN1CCc2ccccc2C1)c1cccc(NC2CCOCC2)c1` (stereo not drawn) [Compound 16, N-(3-(3,4-dihydroisoquinolin-2(1H)-yl)-2-hydroxypropyl)-3-((tetrahydro-2H-pyran-4-yl)amino)benzamide] were, in that order, less than 100 nM and 101 to 1000 nM. The like results for `O=C(NC[C@@H](O)CN1CCc2ccccc2C1)c1cccc(-c2ccccn2)c1` [Compound 19] were, in that order, 101 to 1000 nM and 10000 to 50000 nM.

In the case of `O=C(NC[C@H](O)CN1CCc2ccccc2C1)c1cccc(-c2ccccn2)c1` [Compound 20], the results for the EC50 in assay [1] (Homo sapiens) and in assay [2] were less than 100 nM and 101 to 1000 nM, respectively. The like results for `CS(=O)(=O)Nc1cccc(C(=O)NCC(O)CN2CCc3ccccc3C2)c1` (stereo not drawn) [Compound 24] were, in that order, 101 to 1000 nM and 1000 to 10000 nM.

For the compound `CN(C)CCOc1cccc(C(=O)NCC(O)CN2CCc3ccccc3C2)c1` (stereo not drawn) [Compound 28, N-(3-(3,4-dihydroisoquinolin-2(1H)-yl)-2-hydroxypropyl)-3-(2-(dimethylamino)ethoxy)benzamide], the EC50 was 101 to 1000 nM in assay [1] (Homo sapiens) and 10000 to 50000 nM in assay [2].

For the compound `O=C(NCC(O)CN1CCc2ccccc2C1)c1cccc(CN2CCNCC2)c1` (stereo not drawn) [Compound 29], the EC50 in assay [1] (Homo sapiens) was in the range of 101 to 1000 nM; in assay [2] it was 1000 to 10000 nM. The like results for `CN1CCN(Cc2cccc(C(=O)NCC(O)CN3CCc4ccccc4C3)c2)CC1` (stereo not drawn) [Compound 30, N-(3-(3,4-dihydroisoquinolin-2(1H)-yl)-2-hydroxypropyl)-3-((4-methylpiperazin-1-yl)methyl)benzamide] were, in that order, 101 to 1000 nM and 1000 to 10000 nM. The like results for `CN1CCCC1c1cccc(C(=O)NCC(O)CN2CCc3ccccc3C2)c1` (stereo not drawn) [Compound 34, N-(3-(3,4-dihydroisoquinolin-2(1H)-yl)-2-hydroxypropyl)-3-(1-methylpyrrolidin-2-yl) benzamide] were, in that order, 101 to 1000 nM and 10000 to 50000 nM. For `O=C(NCC(O)CN1CCc2ccccc2C1)c1cccc(N2CCNCC2)c1` (stereo not drawn) [Compound 35, N-(3-(3,4-dihydroisoquinolin-2(1H)-yl)-2-hydroxypropyl)-3-(piperazin-1-yl)benzamide] the same measures were 101 to 1000 nM and 10000 to 50000 nM. Regarding `CN1CCN(c2cccc(C(=O)NCC(O)CN3CCc4ccccc4C3)c2)CC1` (stereo not drawn) [Compound 36], the EC50 in assay [1] (Homo sapiens) was in the range of 101 to 1000 nM; in assay [2] it was 10000 to 50000 nM.

On to `O=C(NCC(O)CN1CCc2ccccc2C1)c1cccc(C2CCNC2)c1` (stereo not drawn) [Compound 37], for which the values for the EC50 in assay [1] (Homo sapiens) and in assay [2] were 101 to 1000 nM and more than 20000 nM, respectively. `O=C(NC[C@H](O)CN1CCc2ccccc2C1)c1cccc(NC2CCOCC2)c1` [Compound 44, (S)—N-(3-(3,4-dihydroisoquinolin-2(1H)-yl)-2-hydroxypropyl)-3-((tetrahydro-2H-pyran-4-yl)amino)benzamide]: the EC50 in assay [2] lay in the range of 101 to 1000 nM. For `O=C(NCC(O)CN1CCc2ccccc2C1)c1cccc(NC2CCOC2)c1` (stereo not drawn) [Compound 45, N-(3-(3,4-dihydroisoquinolin-2(1H)-yl)-2-hydroxypropyl)-3-((tetrahydrofuran-3-yl)amino)benzamide], the EC50 in assay [1] (Homo sapiens) fell in the range of 101 to 1000 nM. The same measure, in the same setting: next, `O=C(NCC(O)CN1CCc2ccccc2C1)c1cccc(NCCN2CCOCC2)c1` (stereo not drawn) [Compound 61]: 101 to 1000 nM; `COCCNc1cccc(C(=O)NCC(O)CN2CCc3ccccc3C2)c1` (stereo not drawn) [Compound 72]: 1000 to 10000 nM. Same read-out and setting: the value for `O=C(NCC(O)CN1CCc2ccccc2C1)c1cncc(NC2CCOCC2)n1` (stereo not drawn) [Compound 75] was 101 to 1000 nM. As for `O=C(NCC(O)CN1CCc2ccccc2C1)c1nccc(NC2CCOCC2)n1` (stereo not drawn) [Compound 76], the EC50 in assay [1] (Homo sapiens) lay in the range of 101 to 1000 nM. On the same count and under the same terms, the value for `O=C(NC[C@@H](O)CN1CCc2ccccc2C1)c1cccc(OC2CCOCC2)c1` [Compound 83] was 101 to 1000 nM; that for `CC1=NN(c2ccc(C(=O)NCC(O)CN3CCc4ccccc4C3)cc2)C(=O)C1` (stereo not drawn) [Compound 86] was 1000 to 10000 nM. `CN1CCC(Oc2cccc(C(=O)NCC(O)CN3CCc4ccccc4C3)c2)C1` (stereo not drawn) [Compound 134]: the EC50 in assay [2] lay within 10000 to 50000 nM.

As to `O=C(O)CCCN1CCN(Cc2cccc(C(=O)NCC(O)CN3CCc4ccccc4C3)c2)CC1` (stereo not drawn) [Compound 158], in assay [2], the EC50 is more than 20000 nM. As to `O=C(NC[C@@H](O)CN1CCc2ccccc2C1)c1cc(NC2COC2)ncn1` [Compound 367], the EC50 in assay [1] was in the range of 101 to 1000 nM.

(Values after patent US10307413B2, “Tetrahydro- and dihydro-isoquinoline PRMT5 inhibitors and uses thereof” (Epizyme, Inc., priority 2013, dated 2019).)
